Patent US10294202B2, “Pyrrolidinones as herbicides” (FMC Corporation, priority 2013, dated 2019)
Read-outs that look alike come from different tables or passages of the source.

Experiments:
[1] = system: sedge, umbrella; assay: Test B flooded paddy test; type: in vivo, Cyperus difformis; conditions: 250 g ai/ha, Flood; scale of 0 to 100 where 0 is no effect and 100 is complete control
Summary of the method: (§1)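 Plants grown to 2-leaf stage; pots flooded 3 cm above soil and compound applied directly into paddy water, depth held throughout. Visual rating against untreated controls after 13 to 15 days in greenhouse, 0 (no effect) to 100 (complete control).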

[2] = system: barnyardgrass; assay: Test A pre-/postemergence herbicide test; type: in vivo, Echinochloa crus-galli; conditions: for Barnyardgrass plant response rating: Preemergence, visual rating on 0 to 100 scale (0 no effect, 100 complete control)
Summary of the method: (§2)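 Visual 0–100 ratings (100 = complete control) made about 10 days after treatment, greenhouse-held plants compared with untreated controls. Treatments: postemergence sprays on one- to two-leaf plants (2–10 cm tall) and preemergence directed soil sprays after planting in loam–sand, chemicals formulated in non-phytotoxic solvent containing surfactant.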

[3] = system: crabgrass, large; assay: Test A pre-/postemergence herbicide test; type: in vivo, Digitaria sanguinalis; conditions: for Crabgrass, Large plant response rating: Preemergence, visual rating on 0 to 100 scale (0 no effect, 100 complete control)
Summary of the method: as §2

[4] = system: giant foxtail; assay: Test A pre-/postemergence herbicide test; type: in vivo, Setaria faberii; conditions: for Foxtail, Giant plant response rating: Preemergence, visual rating on 0 to 100 scale (0 no effect, 100 complete control)
Summary of the method: as §2

[5] = system: velvetleaf; assay: Test A pre-/postemergence herbicide test; type: in vivo, Abutilon theophrasti; conditions: for Velvetleaf plant response rating: Preemergence, visual rating on 0 to 100 scale (0 no effect, 100 complete control)
Summary of the method: as §2

[6] = system: ducksalad; assay: Test B flooded paddy test; type: in vivo, Heteranthera limosa; conditions: 250 g ai/ha, Flood; scale of 0 to 100 where 0 is no effect and 100 is complete control
Summary of the method: as §1

[7] = system: corn; assay: Test A pre-/postemergence herbicide test; type: in vivo, Zea mays; conditions: for Corn plant response rating: Preemergence, visual rating on 0 to 100 scale (0 no effect, 100 complete control)
Summary of the method: as §2

[8] = system: morningglory; assay: Test A pre-/postemergence herbicide test; type: in vivo, Ipomoea spp.; conditions: for Morningglory plant response rating: Preemergence, visual rating on 0 to 100 scale (0 no effect, 100 complete control)
Summary of the method: as §2

[9] = system: rice; assay: Test B flooded paddy test; type: in vivo, Oryza sativa; conditions: 250 g ai/ha, Flood; scale of 0 to 100 where 0 is no effect and 100 is complete control
Summary of the method: as §1

[10] = system: barnyardgrass; assay: Test B flooded paddy test; type: in vivo, Echinochloa crus-galli; conditions: 250 g ai/ha, Flood; scale of 0 to 100 where 0 is no effect and 100 is complete control
Summary of the method: as §1

[11] = system: wheat; assay: Test A pre-/postemergence herbicide test; type: in vivo, Triticum aestivum; conditions: for Wheat plant response rating: Preemergence, visual rating on 0 to 100 scale (0 no effect, 100 complete control)
Summary of the method: as §2

[12] = system: pigweed; assay: Test A pre-/postemergence herbicide test; type: in vivo, Amaranthus retroflexus; conditions: for Pigweed plant response rating: Preemergence, visual rating on 0 to 100 scale (0 no effect, 100 complete control)
Summary of the method: as §2

[13] = Postemergence, 125 g ai/ha, 0 to 100 scale, 0 no effect, 100 complete control
[14] = Postemergence, 500 g ai/ha, 0 to 100 scale (0 no effect, 100 complete control)
[15] = preemergence, 500 g ai/ha, 0 to 100 scale

`CC(C)(C)OC(=O)Nc1cccc(C2CNC(=O)C2C(=O)Nc2cccc(F)c2F)c1` (stereo not drawn) [Compound 70] was tested, and the “Plant response rating, Sedge, Umbrella” value [1] was 70, the “Plant response rating, Barnyardgrass” value [2, 13] was 20 and the “Plant response rating, Barnyardgrass” value [2, 14] was 60. For the same compound, the “Barnyardgrass plant response rating” value ([2]; 125 g ai/ha) was 20, the “Plant response rating, Barnyardgrass” value ([2]; preemergence, 500 g ai/ha, 0 to 100 scale (0 no effect, 100 complete control)) was 90 and the “Plant response rating, Crabgrass, Large” value [3, 13] was 20. The “Plant response rating, Crabgrass, Large” value [3, 14] was 70, the “Crabgrass, Large plant response rating” value ([3]; 125 g ai/ha) was 80 and the “Plant response rating, Crabgrass, Large” value [3, 15] was 90. For the same compound, the “Plant response rating, Foxtail, Giant” value [4, 13] was 20, the “Plant response rating, Foxtail, Giant” value [4, 14] was 80 and the “Foxtail, Giant plant response rating” value ([4]; 125 g ai/ha) was 70. The “Plant response rating, Foxtail, Giant” value [4, 15] was 90, the “Plant response rating, Velvetleaf” value [5, 13] was 0 and the “Plant response rating, Velvetleaf” value [5, 14] was 20. For the same compound, the “Velvetleaf plant response rating” value ([5]; 125 g ai/ha) was 0, the “Plant response rating, Velvetleaf” value [5, 15] was 0 and the “Plant response rating, Ducksalad” value [6] was 85. For the same compound, the “Plant response rating, Corn” value [7, 13] was 0, the “Plant response rating, Corn” value [7, 14] was 0 and the “Corn plant response rating” value ([7]; 125 g ai/ha) was 0. The “Plant response rating, Corn” value [7, 15] was 0, the “Plant response rating, Morningglory” value [8, 13] was 0 and the “Plant response rating, Morningglory” value [8, 14] was 0. The “Morningglory plant response rating” value ([8]; 125 g ai/ha) was 0, the “Plant response rating, Morningglory” value [8, 15] was 0 and the “Plant response rating, Rice” value [9] was 35. For the same compound, the “Plant response rating, Barnyardgrass” value [10] was 40, the “Plant response rating, Wheat” value [11, 13] was 0 and the “Plant response rating, Wheat” value [11, 14] was 40. The “Wheat plant response rating” value ([11]; 125 g ai/ha) was 0, the “Plant response rating, Wheat” value [11, 15] was 20 and the “Plant response rating, Pigweed” value [12, 13] was 0. For the same compound, the “Plant response rating, Pigweed” value [12, 14] was 20, the “Pigweed plant response rating” value ([12]; 125 g ai/ha) was 0 and the “Plant response rating, Pigweed” value [12, 15] was 0.

`O=C1NCC(c2ccc(F)c(Cl)c2)C1C(=O)Nc1ccccc1C(F)(F)F` (stereo not drawn) [Compound 74, 4-(3-chloro-4-fluorophenyl)-2-oxo-N-[2-(trifluoromethyl)phenyl]-3-pyrrolidinecarboxamide] was tested, and the “Plant response rating, Sedge, Umbrella” value [1] was 0, the pest or weed control at 125 g/ha ([2]; Echinochloa crus-galli, post-emergence, 240 h, Postemergence, 125 g ai/ha, 0 to 100 scale, 0 no effect, 100 complete control, read-out: Plant response rating, Barnyardgrass) was 60% and the pest or weed control at 500 g/ha ([2]; Echinochloa crus-galli, post-emergence, 240 h, Postemergence, 500 g ai/ha, 0 to 100 scale (0 no effect, 100 complete control), read-out: Plant response rating, Barnyardgrass) was 80%. The pest or weed control at 500 g/ha ([2]; Echinochloa crus-galli, pre-emergence, 240 h, preemergence, 500 g ai/ha, 0 to 100 scale (0 no effect, 100 complete control), read-out: Plant response rating, Barnyardgrass) was 90%, the “Barnyardgrass plant response rating” value ([2]; 125 g ai/ha) was 60 and the pest or weed control at 125 g/ha ([3]; Digitaria sanguinalis, post-emergence, 240 h, Postemergence, 125 g ai/ha, 0 to 100 scale, 0 no effect, 100 complete control, read-out: Plant response rating, Crabgrass, Large) was 80%. For the same compound, the pest or weed control at 500 g/ha ([3]; Digitaria sanguinalis, post-emergence, 240 h, Postemergence, 500 g ai/ha, 0 to 100 scale (0 no effect, 100 complete control), read-out: Plant response rating, Crabgrass, Large) was 90%, the pest or weed control at 500 g/ha ([3]; Digitaria sanguinalis, pre-emergence, 240 h, preemergence, 500 g ai/ha, 0 to 100 scale, read-out: Plant response rating, Crabgrass, Large) was 90% and the “Crabgrass, Large plant response rating” value ([3]; 125 g ai/ha) was 90. The “Foxtail, Giant plant response rating” value ([4]; 125 g ai/ha) was 90, the pest or weed control at 125 g/ha ([4]; Setaria faberi, post-emergence, 240 h, Postemergence, 125 g ai/ha, 0 to 100 scale, 0 no effect, 100 complete control, read-out: Plant response rating, Foxtail, Giant) was 80% and the pest or weed control at 500 g/ha ([4]; Setaria faberi, post-emergence, 240 h, Postemergence, 500 g ai/ha, 0 to 100 scale (0 no effect, 100 complete control), read-out: Plant response rating, Foxtail, Giant) was 90%. The pest or weed control at 500 g/ha ([4]; Setaria faberi, pre-emergence, 240 h, preemergence, 500 g ai/ha, 0 to 100 scale, read-out: Plant response rating, Foxtail, Giant) was 90%, the pest or weed control at 125 g/ha ([5]; Abutilon theophrasti, post-emergence, 240 h, Postemergence, 125 g ai/ha, 0 to 100 scale, 0 no effect, 100 complete control, read-out: Plant response rating, Velvetleaf) was 30% and the pest or weed control at 500 g/ha ([5]; Abutilon theophrasti, post-emergence, 240 h, Postemergence, 500 g ai/ha, 0 to 100 scale (0 no effect, 100 complete control), read-out: Plant response rating, Velvetleaf) was 50%. The pest or weed control at 500 g/ha ([5]; Abutilon theophrasti, pre-emergence, 240 h, preemergence, 500 g ai/ha, 0 to 100 scale, read-out: Plant response rating, Velvetleaf) was 0%, the “Velvetleaf plant response rating” value ([5]; 125 g ai/ha) was 0 and the “Plant response rating, Ducksalad” value [6] was 90. The “Corn plant response rating” value ([7]; 125 g ai/ha) was 0, the Corn plant response rating (crop injury, 0 = no effect, 100 = complete kill) at 125 g/ha ([7]; Zea mays, post-emergence, 240 h, Postemergence, 125 g ai/ha, 0 to 100 scale, 0 no effect, 100 complete control) was 0% and the Corn plant response rating (crop injury, 0 = no effect, 100 = complete kill) at 500 g/ha ([7]; Zea mays, post-emergence, 240 h, Postemergence, 500 g ai/ha, 0 to 100 scale (0 no effect, 100 complete control)) was 50%. The Corn plant response rating (crop injury, 0 = no effect, 100 = complete kill) at 500 g/ha ([7]; Zea mays, pre-emergence, 240 h, preemergence, 500 g ai/ha, 0 to 100 scale) was 0%, the pest or weed control at 125 g/ha ([8]; Ipomoea, post-emergence, 240 h, Postemergence, 125 g ai/ha, 0 to 100 scale, 0 no effect, 100 complete control, read-out: Plant response rating, Morningglory) was 0% and the pest or weed control at 500 g/ha ([8]; Ipomoea, post-emergence, 240 h, Postemergence, 500 g ai/ha, 0 to 100 scale (0 no effect, 100 complete control), read-out: Plant response rating, Morningglory) was 0%. For the same compound, the pest or weed control at 500 g/ha ([8]; Ipomoea, pre-emergence, 240 h, preemergence, 500 g ai/ha, 0 to 100 scale, read-out: Plant response rating, Morningglory) was 0%, the “Morningglory plant response rating” value ([8]; 125 g ai/ha) was 0 and the “Plant response rating, Rice” value [9] was 0. The “Plant response rating, Barnyardgrass” value [10] was 0, the “Wheat plant response rating” value ([11]; 125 g ai/ha) was 0 and the plant injury at 125 g/ha ([11]; Triticum aestivum, post-emergence, 240 h, Postemergence, 125 g ai/ha, 0 to 100 scale, 0 no effect, 100 complete control, read-out: Plant response rating, Wheat) was 0%. The plant injury at 500 g/ha ([11]; Triticum aestivum, post-emergence, 240 h, Postemergence, 500 g ai/ha, 0 to 100 scale (0 no effect, 100 complete control), read-out: Plant response rating, Wheat) was 60%, the plant injury at 500 g/ha ([11]; Triticum aestivum, pre-emergence, 240 h, preemergence, 500 g ai/ha, 0 to 100 scale, read-out: Plant response rating, Wheat) was 0% and the pest or weed control at 125 g/ha ([12]; Amaranthus retroflexus, post-emergence, 240 h, Postemergence, 125 g ai/ha, 0 to 100 scale, 0 no effect, 100 complete control, read-out: Plant response rating, Pigweed) was 0%. The pest or weed control at 500 g/ha ([12]; Amaranthus retroflexus, post-emergence, 240 h, Postemergence, 500 g ai/ha, 0 to 100 scale (0 no effect, 100 complete control), read-out: Plant response rating, Pigweed) was 0%, the pest or weed control at 500 g/ha ([12]; Amaranthus retroflexus, pre-emergence, 240 h, preemergence, 500 g ai/ha, 0 to 100 scale, read-out: Plant response rating, Pigweed) was 50% and the “Pigweed plant response rating” value ([12]; 125 g ai/ha) was 0.
